# Assay results reported in patent US20240108740A1, “THERAPEUTIC COMPOSITIONS INCLUDING SPN10 AND USES THEREOF” (Stealth BioTherapeutics Inc., priority 2022, published 2024).
# Residues, ends and D or L forms follow the SMILES beside them.
# Legend:
# [1] = test system: vincristine-related pain; test: Treatment of vincristine-induced hyperalgesia in humans; type: in vivo, human; conditions: s.c., once daily for 14 days
# Excerpt: Patients will be recruited to the study as they present in clinic with chronic (>6 months' duration), spontaneous, ongoing, vincristine-related pain. Those enrolled will rate their daily maximum level of pain at 4 or greater on a visual analogue scale (VAS). The patients will be screened for their willingness to enroll in the study, and informed consent will be obtained. Healthy subjects will also be recruited for collection of comparison data. No subjects in either the patient or comparison group will have known risk factors for any other cause of peripheral neuropathy, including diabetes, AIDS, chronic alcoholism, or previous radiation exposure. […] Touch and Sharpness Detection Thresholds-Touch detection thresholds will be determined with von Frey monofilaments using the up/down method as previously reported. […] The force of the filament detected four consecutive times will be assigned as the touch detection threshold. Sharpness detection will be determined using weighted 30-gauge metal cylinders. […] The percentages of each reply will be calculated and then combined into group grand means for comparison. The 50% sharpness detection threshold will be calculated as the weighted needle that caused five or more sharp responses after 10 consecutive stimuli. Grooved Pegboard Test-Manual dexterity will be assessed with the grooved pegboard test. […]
# [2] = Example 17: linoleic acid peroxidation induced by ABAP; type: biochemical
# Protocol: Linoleic acid peroxidation will be induced using the water-soluble initiator 2,2′-azobis(2-amidinopropane) (ABAP), and lipid peroxidation will be detected by the formation of conjugated dienes, monitored spectrophotometrically at 236 nm (E. Longoni, W. A. Pryor, P. Marchiafava, Biochem. Biophys. Res. Commun. 233, 778-780 (1997)).
# 5 mL of 0.5 M ABAP and varying concentrations of peptide conjugates; aromatic-cationic peptides (an equivalent molar dose of aromatic-cationic peptide based on the concentration of the aromatic-cationic peptide administered in the peptide conjugate treatment group); SPN10(s) (an equivalent molar dose of SPN10 based on the concentration of SPN10 administered in the peptide conjugate treatment group); or SPN10(s) in combination with aromatic-cationic peptides (e.g., an equivalent molar dose of SPN10 based on the concentration of SPN10 administered in the peptide conjugate treatment group and an equivalent molar dose of aromatic-cationic peptide based on the concentration of aromatic-cationic peptide administered in the peptide conjugate treatment group) will be incubated in 2.4 mL linoleic acid suspension until autoxidation rate becomes constant.
structure (smiles),measurement,setting,value
"N=C(N)NCCC[C@H](NC(=O)[C@@H](N)Cc1c[nH]c2ccccc12)C(=O)N[C@@H](Cc1c[nH]c2ccccc12)C(=O)N[C@@H](CCCCN)C(N)=O [SPN10, H-L-Trp-L-Arg-L-Trp-L-Lys-NH2] (H-WRWK-NH2)",hyperalgesia symptoms,[1],reduction
same,peroxidation of linoleic acid,[2],dose-dependently inhibit the peroxidation of linoleic acid
